These results are taken from DBAASP.

Values after ≈ are worked out from the molar mass of the structure shown.

Common to all, as to experiment: ≥ marks a high value that may be exact or a test limit, other limits are often not marked, values filed in µg/mL are converted to µM
In test [1] the test system is Achromobacter xylosoxidans.
Test [2] relates to Candida albicans.
The subject of test [3] is Escherichia coli UB1005.
Test [4] has as its system Pseudomonas aeruginosa M1251.
Test [5] deals with Pseudomonas aeruginosa M1426.
The subject of test [6] is Pseudomonas aeruginosa M76.
For test [7], the system named is Pseudomonas aeruginosa M917.
For test [8], the system named is Pseudomonas aeruginosa PAO1.
The test system of test [9] is Pseudomonas aeruginosa R70.
In test [10] the test system is Pseudomonas fluorescens.
Test [11] relates to Ralstonia pickettii.
Test [12] deals with Salmonella enterica serovar Typhimurium.
Test [13] relates to Staphylococcus aureus.
Test [14] has as its system Stenotrophomonas maltophilia.
In test [15] the test system is Enterococcus faecalis ATCC 51299.
For test [16], the system named is Enterococcus faecium ATCC 19434.
In test [17] the test system is Escherichia coli ATCC 35218.
The test system of test [18] is Klebsiella pneumoniae ATCC 49472.
For test [19], the system named is Klebsiella pneumoniae ATCC BAA-2814.
In test [20] the test system is Pseudomonas aeruginosa ATCC 27853.
Test [21] concerns Salmonella enterica subsp. enterica serovar Typhimurium ATCC 14028.
Test [22] concerns Staphylococcus aureus ATCC 12600.
Test [23] deals with Staphylococcus aureus ATCC BAA-2312.
Test [24] relates to Escherichia coli 078.
Test [25] has as its system Escherichia coli 987P.
In test [26] the test system is Escherichia coli ATCC 25922.
Test [27] deals with Escherichia coli K88.
Test [28] deals with Escherichia coli K99.
Test [29] has as its system Lacticaseibacillus rhamnosus 1.0385.
The test system of test [30] is Lacticaseibacillus rhamnosus 1.0386.
The subject of test [31] is Lacticaseibacillus rhamnosus 1.0911.
For test [32], the system named is Lacticaseibacillus rhamnosus 1.9205.
The subject of test [33] is Lacticaseibacillus rhamnosus 7469.
For test [34], the system named is Lactiplantibacillus plantarum 8014.
The test system of test [35] is Salmonella enterica subsp. enterica serovar Typhimurium C77-31.
In test [36] the test system is Staphylococcus aureus ATCC 25923.
The subject of test [37] is Staphylococcus aureus ATCC 29213.
Test [38] has as its system Staphylococcus epidermidis ATCC 12228.
The test system of test [39] is Streptococcus agalactiae ATCC 13813.
In test [40] the test system is Candida albicans ATCC 90029.
Test [41] deals with Candida albicans CA1.
Test [42] concerns Candida krusei ATCC 40147.
Test [43] concerns Candida parapsilosis ATCC 90018.
For test [44], the system named is Candida tropicalis ATCC 750.
Test [45] relates to Pseudomonas aeruginosa 253.
Test [46] concerns Pseudomonas aeruginosa 910.
The subject of test [47] is Pseudomonas aeruginosa 919.

As a reminder, the MIC is the lowest concentration that inhibits growth of the organism. Turning to `CC[C@H](C)[C@H](NC(=O)[C@H](Cc1ccccc1)NC(=O)[C@H](CO)NC(=O)[C@H](CCCCN)NC(=O)[C@H](Cc1c[nH]c2ccccc12)NC(=O)[C@@H](N)CCCCN)C(=O)N[C@@H](CCCCN)C(=O)N[C@@H](CCCCN)C(=O)N[C@@H](CC(C)C)C(=O)N[C@H](C(=O)N[C@@H](CCCCN)C(=O)N[C@@H](C)C(=O)N[C@@H](C)C(=O)N[C@@H](CCCCN)C(=O)N[C@@H](CCCCN)C(=O)N[C@H](C(=O)N[C@H](C(=O)N[C@H](C(=O)N[C@H](C(=O)N[C@@H](C)C(=O)N[C@@H](CCCCN)C(=O)N[C@@H](CCCCN)C(=O)N1CCC[C@H]1C(=O)N[C@@H](CC(C)C)C(=O)N[C@H](C(=O)N[C@H](C(N)=O)C(C)C)[C@@H](C)CC)[C@@H](C)O)[C@@H](C)O)C(C)C)C(C)C)[C@@H](C)O` [KWKSFIKKLTKAAKKVVTTAKKPLIV], the MIC in test [1] was 1.35 µM (≈ 4 µg/mL); in test [2], more than 43.3 µM; in [3], 0.677 µM (≈ 2 µg/mL); in test [4], 0.677 µM (≈ 2 µg/mL); in test [5], 1.35 µM (≈ 4 µg/mL); in [6], 1.35 µM (≈ 4 µg/mL). The MIC in test [7] came out at 10.8 µM (≈ 32 µg/mL); in [8] it was 1.35 µM (≈ 4 µg/mL); in [9] it was 0.677 µM (≈ 2 µg/mL); in test [10], 0.677 µM (≈ 2 µg/mL); in [11], 0.677 µM (≈ 2 µg/mL); in test [12], 1.35 µM (≈ 4 µg/mL). The minimal inhibitory concentration (MIC) in test [13] was more than 43.3 µM; in test [14], 0.338 µM (≈ 1 µg/mL).

Take `CC[C@H](C)[C@H](NC(=O)[C@H](CC(=O)O)NC(=O)[C@@H](NC(=O)[C@@H](NC(=O)[C@H](C)NC(=O)CN)C(C)C)C(C)C)C(=O)N[C@@H](CC(C)C)C(=O)N[C@@H](CCCCN)C(=O)NCC(=O)N[C@@H](C)C(=O)NCC(=O)N[C@@H](CCCCN)C(=O)N[C@@H](CC(N)=O)C(=O)N[C@@H](CC(C)C)C(=O)N[C@@H](CC(C)C)C(=O)N[C@@H](CO)C(=O)N[C@@H](CC(C)C)C(=O)N[C@@H](C)C(=O)N[C@@H](CC(C)C)C(=O)N[C@@H](CC(N)=O)C(=O)N[C@@H](CCCCN)C(=O)N[C@@H](CC(C)C)C(=O)N[C@@H](CO)C(=O)N[C@@H](CCC(=O)O)C(=O)N[C@@H](CCCCN)C(=O)N[C@H](C(N)=O)C(C)C` [GAVVDILKGAGKNLLSLALNKLSEKV]: the minimum inhibitory concentration (MIC) is not below 250 µM in test [15]; not below 250 µM in [16]; not below 62.5 µM in [17]; not below 125 µM in [18]; not below 125 µM in [19]; more than 125 µM in [20]. Also, the MIC in test [21] was 250 µM (≈ 663 µg/mL); in test [22] it was not below 250 µM; in test [23], not below 250 µM.

For the compound `CC(C)C[C@H](NC(=O)[C@H](CCCN=C(N)N)NC(=O)[C@@H](NC(=O)[C@H](CCCN=C(N)N)NC(=O)[C@@H]1CCCN1C(=O)[C@H](CCCN=C(N)N)NC(=O)[C@H](CCCCN)NC(=O)[C@@H](N)CCC(N)=O)C(C)C)C(=O)N[C@@H](CO)C(=O)N[C@@H](C)C(=O)O` [QKRPRVRLSA], the minimal inhibitory concentration (MIC) in [24] is not below 128 µM; in test [25] it was not below 128 µM; in test [26] it was 64 µM (≈ 77.5 µg/mL); in test [27], not below 64 µM; in test [28], not below 64 µM; in test [3], not below 128 µM. Further, the minimum inhibitory concentration (MIC) in test [29], in [30], in test [31], in test [32], in [33] and in [34] was not below 128 µM in each case. In addition, the MIC in test [20] is more than 128 µM; in test [35] it was not below 128 µM; in test [36] it was more than 128 µM; in [37], more than 128 µM; in test [38] it was more than 128 µM; in test [39], not below 128 µM.

As to `CC[C@H](C)[C@H](NC(=O)[C@H](C)NC(=O)[C@H](CCCCN)NC(=O)[C@H](CC(C)C)NC(=O)[C@H](C)NC(=O)[C@H](Cc1c[nH]c2ccccc12)NC(=O)[C@H](CCCCN)NC(=O)[C@H](C)NC(=O)[C@H](CC(C)C)NC(=O)[C@@H](NC(=O)CNC(=O)[C@H](Cc1c[nH]c2ccccc12)NC(=O)[C@@H](N)Cc1ccccc1)[C@@H](C)O)C(=O)N1CCC[C@H]1C(=O)N[C@@H](C)C(=O)N[C@@H](C)C(=O)N[C@@H](CCSC)C(=O)NCC(=O)N[C@@H](CCSC)C(=O)N[C@@H](CCCCN)C(=O)N[C@@H](CCC(N)=O)C(=O)N[C@@H](CC(N)=O)C(=O)N[C@@H](CCCCN)C(=O)O` [FWGTLAKWALKAIPAAMGMKQNK], the MIC in [40] stood at 10 µM (≈ 25.6 µg/mL); in test [41], 10 µM (≈ 25.6 µg/mL); in [42], 5 µM (≈ 12.8 µg/mL); in [43], 10 µM (≈ 25.6 µg/mL); in test [44], 10 µM (≈ 25.6 µg/mL).

Regarding `CC[C@H](C)[C@H](N)C(=O)N[C@@H](CC(C)C)C(=O)N[C@@H](CCCCN)C(=O)N[C@@H](Cc1c[nH]c2ccccc12)C(=O)N[C@@H](CCCCN)C(=O)N[C@@H](CCCN=C(N)N)C(=O)N[C@@H](CCCCN)C(=O)N[C@@H](Cc1c[nH]c2ccccc12)C(=O)N[C@@H](Cc1c[nH]c2ccccc12)C(=O)N[C@@H](CCCCN)C(=O)N[C@@H](Cc1c[nH]c2ccccc12)C(=O)N[C@@H](Cc1ccccc1)C(=O)N[C@@H](CCCN=C(N)N)C(N)=O` [ILKWKRKWWKWFR], the MIC in [45] is 8 µM (≈ 15.7 µg/mL); in [46] it was 4 µM (≈ 7.84 µg/mL); in test [47], not below 32 µM; in test [8], 2 µM (≈ 3.92 µg/mL).
